Experimental data taken from ChEMBL document CHEMBL1212903, “Neuroprotective xanthone glycosides from Swertia punicea” (2010).

How the values were obtained:
PC-12 [1] = test: Neuroprotective activity in rat PC12 cells assessed as protection against H2O2-induced cell damage at 25 ug/ml after 1 hr by MTT assay relative to control; type: functional
PC-12 [2] = test: Neuroprotective activity in rat PC12 cells assessed as protection against H2O2-induced cell damage at 12.5 ug/ml after 1 hr by MTT assay relative to control; type: functional

Compound	Activity (PC-12 [1])	Activity (PC-12 [2])
O=c1c2cc(O)c(O)cc2oc2c(-c3cc(O)c4oc5cc(O)cc(O)c5c(=O)c4c3O)c(O)c([C@@H]3O[C@H](CO)[C@@H](O)[C@H](O)[C@H]3O)c(O)c12	157.8%	95.5%
CC1=NN(c2ccccc2)C(=O)C1 [EDARAVONE]	86.9%	74.3%
O=c1c2c(oc3cc(O)c(-c4cc(O)c5oc6cc(O)cc(O)c6c(=O)c5c4O)c(O)c13)[C@H](O)CC[C@@H]2O[C@@H]1O[C@H](CO)[C@@H](O)[C@H](O)[C@H]1O [PUNICEASIDE B]	98.1%	75.1%
O=c1c2c(O)c(-c3cc(O)c4oc5cc(O)cc(O)c5c(=O)c4c3O)c(O)cc2oc2c(O)ccc(O[C@@H]3O[C@H](CO)[C@@H](O)[C@H](O)[C@H]3O)c12 [swertiabisxanthone I]	123%	89.1%
